Converted amounts (≈) assume the structure as drawn. Where two headings read alike, the source gives them in different places.
Experiments:
P. aeruginosa LpxC = P. aeruginosa LpxC (Pseudomonas aeruginosa (strain ATCC 15692 / DSM 22644 / CIP 104116 / JCM 14847 / LMG 12228 / 1C / PRS 101 / PAO1), UniProt P47205); test: biochemical; type: biochemical; conditions: 5 nM P. aeruginosa LpxC, 2.5 μM substrate, 1 hour at room temperature
Experimental: (§1) Exemplary compounds from the above Examples were tested for ability to inhibit LpxC activity using an in vitro substrate deacetylation assay with ADDA™ analysis. Assay procedures and results are described below.
(§2) For ADDA™ analysis, an aliquot of assay sample was withdrawn from each well of the 384-well plate and applied to a Hypercarb cartridge (Optimize Technologies, USA) under conditions designed to retain analytes of interest. Analytes were eluted using 1:1:2 acetone:acetonitrile:water containing 5 mM ammonium acetate then analysed by triple-quadrupole mass spectrometry. Mass spectrometry was carried out using electrospray ionization in negative ion mode.
For IC50 determinations, peak areas of the substrate and product were compared to compute the proportion of substrate reacted by the LpxC enzyme at each compound concentration.

E. coli LpxC = E. coli LpxC (Escherichia coli (strain K12), UniProt P0A725); test: in vitro substrate deacetylation assay for inhibition of LpxC (ADDA analysis); type: biochemical; conditions: 5 nM E. coli LpxC, 2.5 μM substrate, 1 hour at room temperature
Experimental: as §1
Dilutions of test compound were pre-incubated with 5 nM P. aeruginosa or E. coli LpxC for 10 minutes at room temperature in 50 mM NaH2PO4, 500 mM sucrose, 0.2 mg/mL BSA, pH 7.2 and <1% DMSO. Reactions were initiated by the addition of 2× substrate (UDP-3-O—(R-3-hydroxydecanoyl)-N-acetylglucosamine, Carbosynth Ltd, UK, for P. aeruginosa LpxC and UDP-3-O—(R-3-hydroxymyristoyl)-N-acetylglucosamine, BOC Sciences, USA, for E. coli LpxC), in 50 mM NaH2PO4, 0.5 mg/mL BSA, pH 7.2, to a final concentration of 2.5 μM. Reactions proceeded for 1 hour at room temperature prior to quenching with and equal volume of 2% acetic acid.
as §2, with “mode. Daughter ion peaks representing detected substrate (P. aeruginosa: parent Q1 mass=775.8 amu, daughter Q3 mass=384.7 amu E. coli: parent Q1 mass=833.0 amu, daughter Q3 mass=385.0 amu, collision energy=analyte specific, dwell time=50 ms) were identified using a multiple-reaction monitoring protocol.” for “mode.”
Total activity (0% inhibition) was obtained from reactions containing no compound, and 100% inhibition is defined as reactions in the presence of 1 μM CHIR-090 (N-[(1S,2R)-2-hydroxy-1-[(hydroxyamino)carbonyl]propyl]-4-[2-[4-(4-morpholinylmethyl)phenyl]ethynyl]-benzamide). For IC50 determinations, peak areas of the substrate and product were compared to compute the proportion of substrate reacted by the LpxC enzyme at each compound concentration. The fractional activity was converted to percentage inhibition and plotted against compound concentration in ActivityBase™ and fit using a four-parameter logistic using non-linear regression to yield the IC50 value.

[1] = tested on: P. aeruginosa PAO1 isogenic mutant deficient in MexA mediated efflux; test: broth microdilution minimum inhibition concentration assay; type: cell-based; conditions: Pseudomonas aeruginosa, PAO1, read-out: P. aeruginosa KO MIC
Experimental: (§3) Exemplary compounds from the above Examples were tested to determine their minimum inhibitory concentration (MIC) for exemplary strains of Eschericia and Pseudomonas bacteria using broth microdilution methods. Assay procedures and results are described below.
(§4) Broth microdilution assays were conducted according to Clinical and Laboratory Standards Institute guidelines (CLSI, M07-A11: Clinical and Laboratory Standards Institute. Methods for Dilution Antimicrobial Susceptibility Tests for Bacteria that Grow Aerobically; Approved Standard—11th Edition. Wayne, PA: CLSI, 2018.). Briefly, a 0.5 McFarland standard suspension was made from bacterial isolates on non-selective, solid media. The inocula were adjusted to give a bacterial concentration of 1×10^6 CFU/mL. Serial doubling-dilutions of each compound were prepared in cation-adjusted Mueller-Hinton broth (Sigma-Aldrich) in 96-well microdilution plates. A 50 μL aliquot of the inoculum was added to each microdilution plate and, within 15 minutes, incubated at 37° C. in air for 16-20 h. […] The test was controlled by the determination of piperacillin MIC against both E. coli ATCC 25922 and P. aeruginosa ATCC 27853 and ensuring accordance with the ranges published in CLSI supplementary document M100 (CLSI, M100Ed29: Clinical and Laboratory Standards Institute. Performance Standards for Antimicrobial Susceptibility Testing, 29th Edition. Wayne, PA: CLSI, 2018.).
(§5) Multiple enterobacteriaceae strains were tested, including E. coli ATCC 25922 and K. pneumoniae ATCC 43816. WT E. coli BW25113 was tested with an isogenic mutant deficient in acrA mediated efflux by clean deletion. WT P. aeruginosa PAO1 was tested with an isogenic mutant deficient in MexA mediated efflux by clean deletion.
(§6) Experimental results are provided in Table 4, which provides MIC values for wild-type E. coli BW25113 (“E. coli WT MIC”), an isogenic mutant deficient in acrA mediated efflux by clean deletion (“E. coli KO MIC”), wild-type P. aeruginosa PAO1 (“P. aeruginosa WT MIC”), and an isogenic mutant deficient in MexA mediated efflux by clean deletion (“[…]”).

[2] = tested on: wild-type P. aeruginosa PAO1; test: as above; type: cell-based; conditions: Pseudomonas aeruginosa
Experimental: as §3, §4, §5, §6

[3] = tested on: wild-type E. coli BW25113; test: as above; type: cell-based; conditions: Escherichia coli; wild-type E. coli BW25113, 37° C. 16-20 h; read-out: E. coli WT MIC
Experimental: as §3, §4, §5, §6

[4] = tested on: E. coli BW25113 isogenic mutant deficient in acrA mediated efflux; test: as above; type: cell-based; conditions: Escherichia coli, BW25113, read-out: E. coli KO MIC
Experimental: as §3, §4, §5, §6

[5] = PAO1, read-out: P. aeruginosa WT MIC
[6] = wild-type P. aeruginosa PAO1, 37° C. 16-20 h, read-out: P. aeruginosa WT MIC

Sequence of E. coli LpxC (P0A725 whole entry): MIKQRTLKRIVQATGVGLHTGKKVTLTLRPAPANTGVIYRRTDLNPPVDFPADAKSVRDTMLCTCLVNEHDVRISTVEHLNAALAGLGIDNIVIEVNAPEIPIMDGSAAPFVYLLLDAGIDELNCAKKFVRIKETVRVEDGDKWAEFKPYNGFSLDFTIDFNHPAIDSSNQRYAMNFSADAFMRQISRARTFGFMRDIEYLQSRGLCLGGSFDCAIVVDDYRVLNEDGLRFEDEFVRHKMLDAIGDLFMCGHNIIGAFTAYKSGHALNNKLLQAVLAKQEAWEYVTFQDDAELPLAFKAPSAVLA

Row | Structure (SMILES) | IC50 (P. aeruginosa LpxC) | IC50 (E. coli LpxC) | MIC [1] | MIC [2, 5] | MIC [3] | MIC [4] | MIC [2, 6]
1 | CC(C)C(=O)N1C[C@H](NC(=O)[C@@H]2CC(F)(F)CN2)C[C@@H]1C(=O)NCc1ccc(C#Cc2ccc(CN3CCOCC3)cc2)cc1 [Example 9F] | 50 to 100 nM | 500 to 2500 nM | 20 to 100 µM (≈ 12.4 to 62.2 µg/mL) | > 100 µM | > 100 µM | 20 to 100 µM (≈ 12.4 to 62.2 µg/mL) | –
2 | CC(C)C(=O)N1C[C@H](NC(=O)[C@@H]2CC(F)(F)CN2)C[C@@H]1C(=O)NCc1ccc(C#CC#CC2CC2)cc1 [Example 9G] | 50 to 100 nM | 500 to 2500 nM | 20 to 100 µM (≈ 10.2 to 51.1 µg/mL) | > 100 µM | > 100 µM | 20 to 100 µM (≈ 10.2 to 51.1 µg/mL) | –
3 | CC(C)C(=O)N1C[C@H](NC(=O)[C@@H]2C[C@@H](F)CN2)C[C@@H]1C(=O)NCc1ccc(C#Cc2ccc(CN3CCOCC3)cc2)cc1 [Example 9H] | 100 to 1000 nM | 2500 to 10000 nM | > 100 µM | > 100 µM | > 100 µM | > 100 µM | –
4 | CC(C)C(=O)N1C[C@H](NC(=O)[C@@H]2C[C@@H](F)CN2)C[C@@H]1C(=O)NCc1ccc(C#CC#CC2CC2)cc1 [Example 9I] | 100 to 1000 nM | 2500 to 10000 nM | > 100 µM | > 100 µM | > 100 µM | > 100 µM | –
5 | CC(C)C(=O)N1C[C@H](NC(=O)[C@@H]2CCCN2)C[C@@H]1C(=O)NCc1ccc(C#Cc2ccccc2)cc1 [Example 9J] | 100 to 1000 nM | 2500 to 10000 nM | > 100 µM | > 100 µM | > 100 µM | 20 to 100 µM (≈ 9.73 to 48.7 µg/mL) | –
6 | CC(C)C(=O)N1C[C@H](NC(=O)[C@@H]2CCCN2)C[C@@H]1C(=O)NCc1ccc(C#Cc2ccc(CN3CCOCC3)cc2)cc1 [Example 9K] | 50 to 100 nM | 500 to 2500 nM | 20 to 100 µM (≈ 11.7 to 58.6 µg/mL) | > 100 µM | > 100 µM | 20 to 100 µM (≈ 11.7 to 58.6 µg/mL) | –
7 | CC(C)C(=O)N1C[C@H](NC(=O)[C@@H]2CCCN2)C[C@@H]1C(=O)NCc1ccc(C#CC#CC2CC2)cc1 [Example 9L] | 100 to 1000 nM | 500 to 2500 nM | 20 to 100 µM (≈ 9.49 to 47.5 µg/mL) | > 100 µM | > 100 µM | 20 to 100 µM (≈ 9.49 to 47.5 µg/mL) | –
8 | NCCC(=O)N1C[C@H](NC(=O)[C@@H]2C[C@H](F)CN2)C[C@@H]1C(=O)NCc1ccc(C#CC#CC2CC2)cc1 [Example 9M] | 50 to 100 nM | 2500 to 10000 nM | > 100 µM | > 100 µM | > 100 µM | > 100 µM | –
9 | C[C@H](CN)C(=O)N1C[C@H](NC(=O)[C@@H]2C[C@H](F)CN2)C[C@@H]1C(=O)NCc1ccc(C#CC#CC2CC2)cc1 [Example 9N] | 50 to 100 nM | 500 to 2500 nM | > 100 µM | > 100 µM | > 100 µM | > 100 µM | –
10 | NCCCC(=O)N1C[C@H](NC(=O)[C@@H]2C[C@H](F)CN2)C[C@@H]1C(=O)NCc1ccc(C#CC#CC2CC2)cc1 [Example 9O] | 50 to 100 nM | 2500 to 10000 nM | > 100 µM | > 100 µM | > 100 µM | > 100 µM | –
11 | O=C(N[C@@H]1C[C@H](C(=O)NCc2ccc(C#CC#CC3CC3)cc2)N(C(=O)C2CCNCC2)C1)[C@@H]1C[C@H](F)CN1 [Example 9P] | 100 to 1000 nM | 2500 to 10000 nM | > 100 µM | > 100 µM | > 100 µM | > 100 µM | –
12 | CNCCC(=O)N1C[C@H](NC(=O)[C@@H]2C[C@H](F)CN2)C[C@@H]1C(=O)NCc1ccc(C#CC#CC2CC2)cc1 [Example 9Q] | 50 to 100 nM | 2500 to 10000 nM | > 100 µM | > 100 µM | > 100 µM | > 100 µM | –
13 | COC(=O)N1C[C@H](NC(=O)[C@@H]2C[C@H](F)CN2)C[C@@H]1C(=O)NCc1ccc(C#CC#CC2CC2)cc1 [Example 9R] | < 50 nM | 500 to 2500 nM | < 20 µM | – | > 100 µM | < 20 µM | > 100 µM
14 | C[C@@H](CN)C(=O)N1C[C@H](NC(=O)[C@@H]2C[C@H](F)CN2)C[C@@H]1C(=O)NCc1ccc(C#CC#CC2CC2)cc1 [Example 9S] | 50 to 100 nM | 500 to 2500 nM | > 100 µM | > 100 µM | > 100 µM | > 100 µM | –
15 | CC(C)C(=O)N1C[C@H](NC(=O)[C@@H]2C[C@H](O)CN2)C[C@@H]1C(=O)NCc1ccc(C#Cc2ccc(CN3CCOCC3)cc2)cc1 [Example 9T, (2R,4R)-4-((2S,4S)-4-Hydroxypyrrolidine-2-carboxamido)-1-isobutyryl-N-(4-((4-(morpholinomethyl)phenyl)ethynyl)benzyl)pyrrolidine-2-carboxamide] | 100 to 1000 nM | 2500 to 10000 nM | > 100 µM | > 100 µM | > 100 µM | > 100 µM | –
16 | CC(C)C(=O)N1C[C@H](NC(=O)[C@H]2NCC[C@H]2O)C[C@@H]1C(=O)NCc1ccc(C#Cc2ccc(CN3CCOCC3)cc2)cc1 [Example 9V] | 100 to 1000 nM | 2500 to 10000 nM | > 100 µM | > 100 µM | > 100 µM | > 100 µM | –
17 | CC(C)C(=O)N1C[C@H](NC(=O)[C@H]2NCC[C@H]2O)C[C@@H]1C(=O)NCc1ccc(C#CC#CC2CC2)cc1 [Example 9W, (2R,4R)—N-(4-(cyclopropylbuta-1,3-diyn-1-yl)benzyl)-4-((2S,3R)-3-hydroxypyrrolidine-2-carboxamido)-1-isobutyrylpyrrolidine-2-carboxamide] | 100 to 1000 nM | > 10000 nM | > 100 µM | > 100 µM | > 100 µM | > 100 µM | –
18 | NC1CN(C(=O)N2C[C@H](NC(=O)[C@@H]3C[C@H](F)CN3)C[C@@H]2C(=O)NCc2ccc(C#CC#CC3CC3)cc2)C1 [Example 9X] | < 50 nM | 500 to 2500 nM | < 20 µM | – | > 100 µM | 20 to 100 µM (≈ 10.4 to 52.1 µg/mL) | > 100 µM
19 | CC(C)C(=O)N1C[C@H](NC(=O)[C@@H]2C[C@@H](O)CN2)C[C@@H]1C(=O)NCc1ccc(C#Cc2ccc(CN3CCOCC3)cc2)cc1 [Example 9Y] | 50 to 100 nM | < 500 nM | 20 to 100 µM (≈ 12 to 60.2 µg/mL) | > 100 µM | > 100 µM | 20 to 100 µM (≈ 12 to 60.2 µg/mL) | –
